Data published in US5112820A, “Anti-glaucoma compositions containing 2- and 3-aminomethyl-6-arylcarbonyl- or 6-phenylthio-2,3-dihydropyrrolo-(1,2,3-de)-1,4-benzoxazines and method of use thereof” (Sterling Drug Inc., priority 1990, dated 1992).
Where two headings read alike, the source gives them in different places.

Tests used:
mouse vas deferens = mouse vas deferens adrenergic transmission test (MVD); type: cell-based; settings: for inhibition at 10 µM: read-out: MVD percent inhibition at a given dose level; for IC50: inhibition of contractions in the MVD preparation in vitro, active at IC50 of 5.0 μM or less
From the text: Med. Assoc. 217, 1392 (1971)]. […] Opth. 7, 921-923 (1975); Green and Pederson, Effect of delta-9 Tetrahydrocannabinol on Aqueous Dynamics and Ciliary Body Permeability in the Rabbit Eye., Exptl. Eye Research 15, 499-507 (1973); Colasanti, Craig and Allara, Intraocular Pressure, Ocular Toxicity and Neurotoxicity after Administration of Cannabinol or Cannabigerol, Exptl. Eye Research 39, 252-259 (1984)]. Similarly, synthetic cannabinoids also reduce intraocular pressure [Green, Symunds, Oliver and Elijah, Intraocular Pressure Following Systemic Administration of Cannabinoids., Curr. […] Cannabinoid receptor binding sites can be defined as those to which radio-labelled 4-(1,1-dimethyl-heptyl)-2,3'-dihydroxy-6'alpha-(3-hydroxypropyl)-1',2',3',4',-5',6'-hexahydrobiphenyl (CP 55940) binds in a specific and saturable manner and the binding sites are heterogeneously distributed in the brain [Devane, Dysarz, Johnson, Melvin and Howlett, Determination and Characterization of a Cannabinoid Receptor in Rat Brain, Molecular Pharm 34, 605-613 (1988)]. Natural and synthetic cannabinoids and representative examples of the compounds of the present invention bind to CP 55940 binding sites. […] It is believed that agonist activity at the cannabinoid receptor mediates the anti-glaucoma actions of cannabinoids, and that agonist activity at this receptor correlates with ocular pressure lowering actions in man.
The compounds are identified by the Example or the Preparation number above where their preparations are described.

[1] = smoking (marijuana, man); topical application or systemic injection (delta-9 tetrahydrocannabinol; cited studies in man and rabbit); cited from earlier work
[2] = target: T1, cannabinoid receptor (CP 55940 binding sites) (Rattus norvegicus, UniProt P20272); test: CP55940 binding assay (CP)
T1 construct: from tissue; host or cells: rat brain membranes (inferred from the cited Devane et al. 1988)
T1 sequence (P20272 whole entry): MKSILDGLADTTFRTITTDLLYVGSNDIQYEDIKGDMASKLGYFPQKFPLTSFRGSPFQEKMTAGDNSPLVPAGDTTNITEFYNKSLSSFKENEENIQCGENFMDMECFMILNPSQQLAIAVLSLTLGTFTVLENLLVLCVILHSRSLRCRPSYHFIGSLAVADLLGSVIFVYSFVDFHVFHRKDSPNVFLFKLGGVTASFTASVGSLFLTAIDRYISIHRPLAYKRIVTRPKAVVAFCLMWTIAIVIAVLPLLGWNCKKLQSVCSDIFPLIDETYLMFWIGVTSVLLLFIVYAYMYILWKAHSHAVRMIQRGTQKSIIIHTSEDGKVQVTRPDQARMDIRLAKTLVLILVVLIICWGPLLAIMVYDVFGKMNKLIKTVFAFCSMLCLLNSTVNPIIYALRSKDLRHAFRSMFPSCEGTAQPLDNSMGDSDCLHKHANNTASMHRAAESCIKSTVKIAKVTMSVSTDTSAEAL

CCc1c(C(=O)c2ccc(OC)cc2)c2cccc3c2n1C(CN1CCOCC1)CO3 (centres unmarked) [Ex. 2A]
inhibition at 10 µM (mouse vas deferens; Mus musculus): 27%

COc1ccc(C(=O)c2c(C)n3c4c(cccc24)OCC3CN2CCOCC2)cc1 (single isomer, unassigned; (-)) [Ex. 2H (1)]
inhibition at 10 µM (mouse vas deferens; Mus musculus): 44%

CCCCCc1cc(O)c2c(c1)OC(C)(C)[C@@H]1CCC(C)=C[C@@H]21 [delta-9 tetrahydrocannabinol]
effect on intraocular pressure [1]: reduces intraocular pressure

Cc1c(Sc2ccccc2)c2cccc3c2n1C(CN1CCOCC1)CO3 (single isomer, unassigned; (+)) [Prep. 4B (d)]
IC50 (mouse vas deferens): 70 nM

Cc1c(Sc2ccccc2)c2cccc3c2n1C(CN1CCOCC1)CO3 (single isomer, unassigned; (-)) [Prep. 4B (1)]
IC50 (mouse vas deferens): 690 nM

Cc1c(C(=O)c2cccc3ccccc23)c2cccc3c2n1CC(CN1CCOCC1)O3 (centres unmarked) [Ex. 2I, 2-(4-morpholinylmethyl)-5-methyl-6-(1-naphthylcarbonyl)2,3-dihydropyrrolo[1,2,3-de]-1,4-benzoxazine]
IC50 ([2]; CP IC50, CP55940 binding): ~10 nM

Cc1c(Sc2ccccc2)c2cccc3c2n1C(CN1CCOCC1)CO3 (centres unmarked) [Prep. 4A (d,1)]
IC50 (mouse vas deferens; Mus musculus): > 10000 nM

COc1ccc(C(=O)c2c(C)n3c4c(cccc24)OCC3CN2CCOCC2)cc1 (single isomer, unassigned; (+)) [Ex. 2H (d)]
IC50 ([2]; CP55940 binding, read-out: CP IC50): 199 nM

Cc1c(C(=O)c2cccc3ccccc23)c2cccc3c2n1C(CN1CCOCC1)CO3 (single isomer, unassigned; (-)) [Ex. 2B (1), (-)-3-(4-morpholinylmethyl)-5-methyl-6-(1-naphthylcarbonyl)-2,3-dihydropyrrolo[1,2,3-de]-1,4-benzoxazine methanesulfonate]
inhibition at 10 µM (mouse vas deferens; Mus musculus): 37%

Cc1c(C(=O)c2cccc3ccccc23)c2cccc3c2n1C(CN1CCOCC1)CO3 (single isomer, unassigned; (+)) [Ex. 2B (d), (+)-3-(4-morpholinylmethyl)-5-methyl-6-(1-naphthylcarbonyl)-2,3-dihydropyrrolo[1,2,3-de]-1,4-benzoxazine methanesulfonate]
IC50 (mouse vas deferens; methanesulfonate): 43 ± 0.1 nM

Cc1c(C(=O)c2cccc3c(Br)cc(Br)cc23)c2cccc3c2n1C(CN1CCOCC1)CO3 (single isomer, unassigned; (-)) [Ex. 1E, (-)-3-(4-morpholinylmethyl)-5-methyl-6-(5,7-dibromonaphthylcarbonyl)-2,3-dihydropyrrolo[1,2,3-de]-1,4-benzoxazine methanesulfonate]
IC50 (mouse vas deferens; methanesulfonate): 2620 ± 1700 nM
